According to patent US20260198495A1, “BINARY INSECTICIDE COMPOSITION AND USE THEREOF” (SHENYANG SINOCHEM AGROCHEMICALS R & D CO., LTD., priority 2022, published 2026):
Values after ≈ are worked out from the molar mass of the structure shown.

Legend:
Type in all cases: in vivo
[1] = tested on: Thrips flavus Schrank nymphs; experiment: Joint toxicity of I-72 + flonicamid, Example 78, Table 78; conditions: Thrips flavus; A = compound I-72, B = flonicamid; eggplant seedling spraying; 48 hours; read-out: LC50
Experimental: Test target: Thrips flavus Schrank nymphs.
(§1) Preparation of the pesticide solution: according to different test requirements, the test samples were accurately weighed respectively with an electronic analytical balance. The technical pesticides were dissolved in acetone, and then diluted with 0.1% Tween 80 water into a series of pesticide solutions with a certain concentration gradient according to the experimental design dosage.
Experimental method: first, eggplant seedlings with Thrips flavus Schrank were selected, and the base number was counted. Then, uniform spraying was performed with the pesticide solution in the order from low to high doses according to the experimental design, with 2 mL for each seedling and 3 replicates for each treatment. In addition, a blank control was set up.
(§2) The treated test materials were placed in an observation room, and the temperature, humidity and illumination of the observation room could be adjusted as needed. The number of dead and live insects was investigated 48 hours later. […] Then, the co-toxicity coefficient of each ratio was calculated using the Sun Y-P method to evaluate the mixing effect (the same as in Example 1).

[2] = tested on: Bemisia tabaci (Gennadius) nymphs; experiment: Joint toxicity of I-72 + bifenthrin, Example 40, Table 40; conditions: A = compound I-72, B = bifenthrin, cotton leaf-disk spraying, 96 hours, read-out: LC50
Experimental: (§3) Test target: Bemisia tabaci (Gennadius) nymphs, a sensitive strain reared indoors.
as §1
(§4) Experimental method: first, cotton leaves with neat and consistent Bemisia tabaci (Gennadius) nymphs were selected and made into leaf disks, with about 20 insects on each leaf disk. Then, they were evenly sprayed with the pesticide solution in the order from low dosage to high dosage according to the experimental design, with 1.5 mL for each leaf and 3 replicates for each treatment. In addition, a blank control was set up.
as §2, with “96” for “48”

[3] = tested on: 2nd-instar larvae of Plutella xylostella; experiment: Joint toxicity of I-72 + beta-cypermethrin, Example 43, Table 43; conditions: in Brassica oleracea, foliar, 72 h
Experimental: as §1
(§5) Experimental method: first, cabbage leaves were selected and dipped in the prepared pesticide solution for 10 s in the order from low dosage to high dosage according to the experimental design. After natural air-drying in the shade, they were placed in a 9-cm-diameter Petri dish with filter paper, and uniform and healthy test insects were introduced, with 10 insects for each treatment and 3 replicates for each treatment. In addition, a blank control was set up.
The treated test materials were placed in an observation room, and the temperature, humidity and illumination of the observation room could be adjusted as needed. The number of dead and live insects was investigated 72 hours later.

[4] = tested on: 3rd-instar larvae of Ostrinia furnacalis Guenee; experiment: Joint toxicity of I-72 + organophosphorus insecticides, corn stalk dipping, Example 21, Table 21; conditions: 3rd-instar larvae, corn stalk dipping, 48 h, A = compound I-72, B = acephate, read-out: LC50
Experimental: Test target: 3rd-instar larvae of Ostrinia furnacalis Guenee, a sensitive strain reared indoors.
as §1
as §5, with “fresh tender corn stalks cultivated in the greenhouse” for “cabbage leaves”, “selected, cut into small sections of 3 cm,” for “selected”
The treated test materials were placed in an observation room, and the temperature, humidity and illumination of the observation room could be adjusted as needed. The number of dead and live insects was investigated 48 hours later. The corrected mortality rate was calculated using the Abbott's formula, and statistical analysis was performed with the DPS data processing software to obtain the toxicity regression equation, LC50 value and 95% confidence limit of each single test pesticide and each mixture of different ratios. Then, the co-toxicity coefficient of each ratio was calculated using the Sun Y-P method to evaluate the mixing effect (the same as in Example 1).

[5] = tested on: Bemisia tabaci (Gennadius) nymphs; experiment: Joint toxicity of I-72 + spiromesifen, Example 27, Table 27; conditions: Bemisia tabaci; A = compound I-72, B = spiromesifen; cotton leaf-disk spraying; 96 hours; read-out: LC50
Experimental: as §3, §1, §4
as §2, with “96” for “48”

[6] = tested on: 3rd-instar larvae of Chilo suppressalis (Walker); experiment: Joint toxicity of I-72 + chlorantraniliprole, Example 57, Table 57; conditions: A = compound I-72, B = chlorantraniliprole, rice stem dipping, 72 hours, read-out: LC50
Experimental: Test target: 3rd-instar larvae of Chilo suppressalis (Walker).
as §1
as §5, with “tender rice stems” for “cabbage leaves”, “control (CK)” for “control”
as §2, with “72” for “48”, “effect,” for “effect (the same”, “1.” for “1).”

[7] = tested on: Frankliniella occidentalis nymphs; experiment: whole plant or invertebrate; conditions: foliar, A = compound I-72, B = dinotefuran, kidney bean leaf dipping, 48 hours, read-out: LC50
Experimental: Test target: Frankliniella occidentalis nymphs.
as §1
as §5, with “first, kidney bean” for “first, cabbage”, “with 20-30” for “with 10”
as §2

Aphis craccivora nymphs = experiment: whole plant or invertebrate; conditions: A = compound I-72, B = sulfoxaflor, broad bean seedling spraying, 48 hours, read-out: LC50
Experimental: Test target: Aphis craccivora nymphs, a sensitive strain reared indoors.
as §1
Experimental method: first, broad bean seedlings with uniform and consistent Aphis craccivora were selected, with about 30-40 insects on each seedling. Then, they were evenly sprayed with the pesticide solution in the order from low dosage to high dosage according to the experimental design, with 1.5 mL of the solution for each leaf and 3 replicates for each treatment. In addition, a blank control was set up.
The treated test materials were placed in an observation room, and the temperature, humidity and illumination of the observation room could be adjusted as needed. The number of dead and live insects was investigated 48 hours later.

With CN(C(=O)c1ccc2c(c1)OC(F)(F)O2)c1cccc(C(=O)Nc2c(Br)cc(C(F)(C(F)(F)F)C(F)(F)F)cc2OC(F)F)c1F [Compound I-72] the LC50 [1] was 1.9 µg/mL, the LC50 [2] was 10.9 µg/mL and the LC50 [3] was 0.0897 µg/mL. The LC50 [4] was 1.19 µg/mL, the LC50 [5] was 11.9 µg/mL and the LC50 [6] was 1.05 µg/mL. For the same compound, the LC50 [7] was 2.41 µg/mL (≈ 3.25 µM) and the LC50 (Aphis craccivora nymphs) was 2.52 µg/mL (≈ 3.41 µM).
